Reference: patent US7091351B2, “Vanadium compounds for treating cancer” (Parker Hughes Institute, priority 1998, dated 2006)

Tests used:
[1] = system: Ntera-2 testicular cancer cells; test: MTT cytotoxicity assay of vanadocenes, NTERA-2 cells; format: cell-based, human; conditions: 24 h, 1.9-250 μM
Method in brief: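 IC50 values come from MTT colorimetry (540 nm) after 24 h drug treatment at 1.9–250 μM in two-fold steps, started 24 h post-seeding. Formazan formed over 4 h at 37 °C and was solubilized overnight in 10% SDS/0.1% HCl; triplicate wells, 0.25% DMSO solvent control.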

[2] = system: MOLT-3 cells; test: MTT cytotoxicity assay of oxovanadium(IV) compounds, MOLT-3; format: cell-based, human; conditions: 48 hr
Description: The cytotoxicity of oxovanadium (W) complexes listed in Table 6 were tested against 9 different human cancer cell lines was performed using the MTT (3-[4,5-dimethylthiazol-2-yl]-2,5-diphenyl tetrazolium bromide) assay (Boehringer Mannheim Corp., Indianapolis, Ind.) as described previously (20). Briefly, exponentially growing tumor cells were seeded into a 96-well plate at a density of 4×10^4cells/well and incubated with medium containing the oxovanadium(IV) compounds concentrations ranging from 0.1 to 250 μM for 48 hours at 37° C. in a humidified 5% CO2 atmosphere. Triplicate wells were used for each treatment. To each well, 10 μl of MTT (0.5 mg/ml final concentration) was added and the plates were incubated at 37° C. for 4 hours to allow MTT to form formazan crystals by reacting with metabolically active cells . The formazan crystals were solubilized overnight at 37° C. in a solution containing 10% SDS in 0.01 M HCl. The absorbence of each well was measured in a microplate reader (Labsystems) at 540 nm and a reference wavelength of 690 nm. To translate the OD540 values into the number of live cells in each well, the OD540 values were compared to those on standard OD540—versus—cell number curves generated for each cell line. The percent survival was calculated using the formula: % survival=Live cell number[test]/Live cell number [control]×100. The IC50 values were calculated by non-linear regression analysis using an Graphpad Prism software version 2.0 (Graphpad Software, Inc., San Diego, Calif.).

| Compound | IC50 [1] | IC50 [2] |
| --- | --- | --- |
| [Cl-].[Cl-].[V+4].c1cc[cH-]c1.c1cc[cH-]c1 [VDC, VCp2Cl2] | 74 µM | – |
| bis(4,7-dimethyl-1,10-phenanthroline)sulfatooxovanadium(IV) [Compound 29] | – | 190 ± 10 nM |
